Laboratory results as given in PMC4171615, “Discovery of selective inhibitors of Glutaminase-2, which inhibit mTORC1, activate autophagy and inhibit proliferation in cancer cells” (Oncotarget, 2014).
Changes are numbered by the printed parent chain.

What was measured:
[1] = molecular target: T1, KGA_D520K (Homo sapiens, UniProt O94925, D520K); assay: Glutaminase activity assay, KGA mutant D520K; format: biochemical
T1 construct: a KGA cDNA fragment of 1644 bp (residues Leu123-Leu669); His-tag (N); made in house; host or cells: Escherichia coli
T1 sequence (O94925 123-669 D520K): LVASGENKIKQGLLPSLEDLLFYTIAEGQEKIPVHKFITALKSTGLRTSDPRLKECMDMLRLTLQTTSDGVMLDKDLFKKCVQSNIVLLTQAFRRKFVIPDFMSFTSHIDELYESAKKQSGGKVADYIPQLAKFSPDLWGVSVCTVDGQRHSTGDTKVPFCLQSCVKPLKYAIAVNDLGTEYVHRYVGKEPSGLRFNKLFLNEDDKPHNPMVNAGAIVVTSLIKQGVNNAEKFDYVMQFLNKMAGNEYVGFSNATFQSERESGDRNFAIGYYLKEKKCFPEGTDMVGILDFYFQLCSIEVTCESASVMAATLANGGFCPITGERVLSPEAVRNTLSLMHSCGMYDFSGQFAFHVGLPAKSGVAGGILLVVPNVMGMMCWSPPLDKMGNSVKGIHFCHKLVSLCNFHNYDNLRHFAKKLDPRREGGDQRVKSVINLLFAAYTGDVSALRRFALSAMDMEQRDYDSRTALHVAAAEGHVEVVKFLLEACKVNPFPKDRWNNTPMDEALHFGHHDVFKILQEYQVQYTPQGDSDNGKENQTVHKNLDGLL
Description: (§1) Human glutaminase activity was measured using a two-step assay as described previously. A microtiter assay format was used to facilitate the collection of multiple data points. Typically, 10 μl of compound, which was dissolved in DMSO, was added to 80 μl of an initial assay mix (0.1 mM hKGA, 0.2 mM EDTA and 50 mM Tris/acetate, pH 8.6). Samples were incubated at 25°C for 10 min and then 10 μl of 200 mM glutamine were added to the reaction mix. After adding glutamine, the reactions were incubated at 37°C for 60 min and then quenched by the addition of 10 μl of 0.6 M HCl. Subsequently, 100 μl of a second reaction mixture (3.7 units of purified bovine liver glutamate dehydrogenase, 160 mM Tris/acetate [pH 9.4], 400 mM hydrazine, 5 mM ADP and 2 mM NAD^+) was added to the stopped first reaction mixture and incubated for 30 min at 25°C. The absorbance at 340 nm was measured using a Wallac Victor2V plate reader (PerkinElmer), fitted with a 340 nm excitation filter. Sample absorbance was measured against a blank, containing no human glutaminase.
(§2) Site-directed mutagenesis was performed on the pET28a(+)-GAB or pET28a(+)-KGA plasmids using PfuUltra II Fusion HS DNA polymerase (Agilent Technologies) to create the GAB and KGA mutants. […] The sequence alignment was compared with crystal structure of the GAC (PDB code: 3UO9) and the resulting model of GAB was analyzed using the Swiss-PDB server. […]

[2] = molecular target: T2, KGA_H519Q (Homo sapiens, UniProt O94925, H519Q); assay: Glutaminase activity assay, KGA mutant H519Q; format: biochemical
T2 construct: a KGA cDNA fragment of 1644 bp (residues Leu123-Leu669); His-tag (N); made in house; host or cells: Escherichia coli
T2 sequence (O94925 123-669 H519Q): T1 sequence (O94925 123-669 D520K) with H397Q, K398D
Description: as §1, §2

IC50 [1]: 290 ± 30 nM | IC50 [2]: 1670 ± 120 nM
Compound: CCCCCCCCCCCCCC(CC1=CC(=O)C=C(OC)C1=O)OC(C)=O (centres unmarked) [AV-1]
